# From patent publication EP4810052A2, “HCRHR2 SELECTIVE POLYPEPTIDES” (Gubra A/S, priority 2023, dated 2026)
# Like-named read-outs stand apart in the source and are kept apart here. Starred links: 1 amine or outer side, 2 acyl side, 3 side chain; linkers in the order of their positions; H or OH if unused. Non-standard residues stand in square brackets, D forms with d. Residues, ends and D or L forms follow the SMILES beside them. Groups on a side chain read outwards from the residue. *: point of attachment. C20 diacid = O=C(O)CCCCCCCCCCCCCCCCCCC(=O)*; γGlu = O=C(O)[C@H](CCC(=O)[*:2])N[*:1]; Nle = CCCC[C@H](N)C(=O)O; AEEA = NCCOCCOCC(=O)O; Aib = CC(C)(N)C(=O)O
# Legend:
# hCRHR1 = target: T1, hCRHR1 (Homo sapiens, UniProt P34998); experiment: HTRF cAMP assay, determination of hCRHR1 potency (peptide libraries 5 conc., purified peptides 11 conc.); type: cell-based; settings: read-out: hCRHR1 EC50
# T1 sequence (P34998 24-415): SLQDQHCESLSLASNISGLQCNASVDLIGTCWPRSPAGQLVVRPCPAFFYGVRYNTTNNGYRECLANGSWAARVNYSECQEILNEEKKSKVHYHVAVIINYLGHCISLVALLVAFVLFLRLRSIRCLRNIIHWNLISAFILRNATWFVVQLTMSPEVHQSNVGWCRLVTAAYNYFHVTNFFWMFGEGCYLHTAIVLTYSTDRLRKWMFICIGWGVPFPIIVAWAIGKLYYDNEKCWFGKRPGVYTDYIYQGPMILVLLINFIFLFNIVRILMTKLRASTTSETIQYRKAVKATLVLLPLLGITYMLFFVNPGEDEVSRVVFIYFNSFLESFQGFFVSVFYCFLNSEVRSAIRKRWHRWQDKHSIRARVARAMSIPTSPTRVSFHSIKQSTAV
# Summary of the method: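 Cellular cAMP was read by time-resolved FRET between d2-labelled cAMP and cryptate anti-cAMP antibody. The cells were freshly thawed suspension CHO-K1 cells stably expressing human CRHR1.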
# [1] = Chemical stability of purified peptides (RP-UHPLC main peak purity loss); type: physicochemical
# Summary of the method: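 Purity loss is the drop in RP-UHPLC main-peak area fraction (215 nm detection, C8 column at 50 °C) from time zero to day 14 and/or day 28 at 40 °C. Samples held roughly 1.0 mg/ml peptide in 50 mM phosphate, pH 7.5, with other pH targets also tested.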
# [2] = pH 7.5
# Method: Solubility was tested in the following vehicles: 100 mM phosphate buffer facilitating a target pH of 6.5, 7.0, and 7.5. Samples were directly dissolved in Mini-UniPrep Syringeless Filter 0.45 µm unit (Whatman). For the desired concentration, such as a concentration of 4000 µM (approximately 20 mg/mL), 1600 nmol peptide was dissolved in 400 µL vehicle. Samples were incubated for at least 1 h at room temperature on a rocking table. The pH was measured and adjusted. Samples were left on the rocking table for an additional hour before a second pH measurement and adjustment. Visual inspection was performed and noted before the filter was pushed. The concentration of peptide in the filtrate was determined using CAD (Charged Aerosol Detection), double determination was done for each sample. The measured concentration was reported in µM. Furthermore, the pH of the filtrate was measured and reported. Peptides with a measured concentration within +/-20% of target concentration are considered fully soluble.
# Compounds were dissolved to a nominal concentration of 4000 µM and analysed as described above. Samples with phenol contained 5.0 mg/ml phenol.
# PK in rats = type: in vivo; set-up: T½ / MRT: unit not given here; settings: Rat
# Method: Lean male Sprague Dawley rats (RJHan:SD) were obtained from JanVier (JanVier Labs, France) at 7 weeks of age. The animals were pair housed until randomization under a 12/12 h dark-light cycle, light off at 3 PM. Room temperature was controlled to 22°C ± 1°C, with 60 % ± 20% humidity.
# Animals had ad libitum access to regular rodent chow (Altromin 1324, Brogaarden, Denmark) and tap water.
# After 2 weeks of acclimatization, the animals were single housed and randomized into treatment groups (n = 3 per group) based on body weight on study day -3. On study day 1, animals were dosed 50 nmol/kg IV and SC in combination of two peptides. Plasma samples were collected for PK analysis at times 0.17, 1, 3, 6, 24, 30, 48, 72 and 96 hours post dosing. Plasma samples were analyzed using LC-MSMS and PK parameters were estimated by Non-Compartmental Analysis (NCA).
# [3] = Thioflavin T fibril formation assay of purified peptides; type: physicochemical; set-up: key: Amyloid fibril formation detected by an increase in ThT fluorescence was denoted with "Yes"; samples without increasing ThT fluorescence hence not forming amyloid fibrils were denoted "No"
# Summary of the method: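 Fibril formation read as rising ThT emission at 480 nm (450 nm excitation), 4 µM ThT, over 96 h at 40°C with alternating 5-min rest and 700 rpm shaking cycles, in triplicate. Samples were 200 µM compound in 50 mM phosphate at various pH values, or co-formulated at 200 µM in semaglutide product at pH 7.4.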
# hCRHR2 = target: T2, hCRHR2 (Homo sapiens, UniProt Q13324); experiment: HTRF cAMP assay, determination of hCRHR2 potency (peptide libraries 5 conc., purified peptides 11 conc.); type: cell-based; settings: for EC50: read-out: hCRHR2 EC50
# T2 sequence (Q13324 1-411): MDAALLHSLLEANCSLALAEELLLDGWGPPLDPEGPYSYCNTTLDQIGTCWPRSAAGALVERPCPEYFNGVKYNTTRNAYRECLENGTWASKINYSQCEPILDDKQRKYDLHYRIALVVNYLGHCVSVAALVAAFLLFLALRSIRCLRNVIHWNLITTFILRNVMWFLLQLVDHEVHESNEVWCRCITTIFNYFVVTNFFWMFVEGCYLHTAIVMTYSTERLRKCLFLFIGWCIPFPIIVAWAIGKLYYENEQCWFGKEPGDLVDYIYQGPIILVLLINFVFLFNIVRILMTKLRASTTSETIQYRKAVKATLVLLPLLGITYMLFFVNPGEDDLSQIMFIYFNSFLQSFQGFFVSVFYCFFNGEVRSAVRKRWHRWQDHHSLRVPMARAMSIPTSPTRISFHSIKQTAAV
# Summary of the method: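 EC50 derived by variable-slope sigmoid regression of FRET-based cAMP data; cellular cAMP displaced d2-labelled tracer from cryptate anti-cAMP antibody. Stable human CRHR2 CHO-K1 suspension cells, revived from frozen stocks just before the run.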
SMILES,"EC50 (hCRHR1; purified peptides, CHO-K1 cells stably expressing hCRHR1, cAMP HTRF)","Chemical stability at pH 7.5 after 14 days at 40°C (% degradation) ([1]; pH 7.5, 40°C, 14 days, first value of cell)","Chemical stability at pH 7.5 after 28 days at 40°C (% degradation) ([1]; pH 7.5, 40°C, 28 days, second value of cell)","Solubility pH 7.5, target conc. =10 mg/mL (measured mg/mL) [2]",MRT (PK in rats),T½ (PK in rats),"Fibrillation (pH 7.5) ([3]; pH 7.5, ThT assay)",Selectivity ratio (hCRHR1/ hCRHR2) (hCRHR2; hCRHR1-EC50/hCRHR2-EC50),"EC50 (hCRHR2; purified peptides, CHO-K1 cells stably expressing hCRHR2, cAMP HTRF)","EC50 (hCRHR1; Table 5, purified peptides)","Chemical stability at pH 7.5 after 14 days at 40°C (% degradation) ([1]; pH 7.5, 14 days, 40°C)","Chemical stability at pH 7.5 after 28 days at 40°C (% degradation) ([1]; pH 7.5, 28 days, 40°C)",Fibrillation (pH 7.5) ([3]; pH 7.5),Selectivity ratio (hCRHR1/ hCRHR2) (hCRHR2; Table 5),"EC50 (hCRHR2; Table 5, purified peptides)"
CC[C@H](C)[C@H](N)C(=O)N[C@H](C(=O)N[C@@H](CC(C)C)C(=O)N[C@@H](CO)C(=O)N[C@@H](CC(C)C)C(=O)N[C@@H](CC(=O)O)C(=O)N[C@H](C(=O)N1CCC[C@H]1C(=O)N[C@H](C(=O)NCC(=O)N[C@@H](CC(C)C)C(=O)N[C@@H](CC(C)C)C(=O)N[C@@H](CCC(N)=O)C(=O)N[C@H](C(=O)N[C@@H](CC(C)C)C(=O)N[C@@H](CC(C)C)C(=O)N[C@@H](CCC(=O)O)C(=O)N[C@@H](CCC(N)=O)C(=O)N[C@@H](C)C(=O)N[C@@H](CCCNC(=N)N)C(=O)N[C@@H](C)C(=O)N[C@@H](CCCNC(=N)N)C(=O)N[C@@H](C)C(=O)N[C@@H](C)C(=O)N[C@@H](CCCNC(=N)N)C(=O)N[C@@H](CCC(=O)O)C(=O)N[C@@H](CCC(N)=O)C(=O)N[C@@H](C)C(=O)N[C@@H](CCCCNC(=O)COCCOCCNC(=O)COCCOCCNC(=O)CC[C@H](NC(=O)CC[C@H](NC(=O)CCCCCCCCCCCCCCCCCCC(=O)O)C(=O)O)C(=O)O)C(=O)N[C@H](C(=O)N[C@@H](CC(N)=O)C(=O)N[C@H](C(=O)N[C@@H](CCC(=O)O)C(=O)N[C@H](C(=O)N[C@@H](CC(C)C)C(=O)N[C@@H](C)C(=O)N[C@@H](CCC(=O)O)C(=O)N[C@H](C(N)=O)C(C)C)[C@@H](C)CC)C(C)C)[C@@H](C)O)[C@@H](C)CC)[C@@H](C)CC)C(C)C)C(C)C [SEQ ID NO: 14] (H-IVLSLDVPIGLLQILLEQARARAAREQAK([AEEA-AEEA-γGlu-γGlu-C20 diacid])TNVEILAEV-NH2),> 5000 nM,-0.3%,-1.2%,9.2 mg/mL,6.1,5.1,No,> 1000,5 nM,,,,,,
CCCC[C@H](NC(=O)[C@@H](NC(=O)[C@H](CCC(=O)O)NC(=O)C(C)(C)NC(=O)[C@H](CC(N)=O)NC(=O)[C@@H](NC(=O)[C@H](CCCCNC(=O)COCCOCCNC(=O)COCCOCCNC(=O)CC[C@H](NC(=O)CC[C@H](NC(=O)CCCCCCCCCCCCCCCCCCC(=O)O)C(=O)O)C(=O)O)NC(=O)[C@H](C)NC(=O)[C@H](CCC(N)=O)NC(=O)[C@H](CCC(=O)O)NC(=O)[C@H](CCCNC(=N)N)NC(=O)[C@H](C)NC(=O)[C@H](C)NC(=O)[C@H](CCCNC(=N)N)NC(=O)[C@H](C)NC(=O)[C@H](CCCNC(=N)N)NC(=O)[C@H](C)NC(=O)[C@H](CCC(N)=O)NC(=O)[C@H](CO)NC(=O)[C@H](CC(C)C)NC(=O)[C@H](CC(C)C)NC(=O)[C@@H](NC(=O)[C@H](CCC(N)=O)NC(=O)[C@H](CC(C)C)NC(=O)[C@H](CC(C)C)NC(=O)CNC(=O)[C@@H](NC(=O)[C@@H]1CCCN1C(=O)[C@@H](NC(=O)[C@H](CC(=O)O)NC(=O)[C@H](CC(C)C)NC(=O)[C@H](CO)NC(=O)[C@H](CC(C)C)NC(=O)[C@@H](NC(=O)[C@@H](N)[C@@H](C)CC)C(C)C)C(C)C)[C@@H](C)CC)[C@@H](C)CC)[C@@H](C)O)[C@@H](C)CC)C(=O)N[C@@H](C)C(=O)N[C@@H](CCC(=O)O)C(=O)N[C@H](C(N)=O)C(C)C [compound 234] (H-IVLSLDVPIGLLQILLSQARARAAREQAK([AEEA-AEEA-γGlu-γGlu-C20 diacid])TN[Aib]EI[Nle]AEV-NH2),,,,11 mg/mL,5.1,4.1,,,,> 5000 nM,-0.43%,-1.1%,No,>6250,0.8 nM
